pEC50: −log10 of the molar value. A value given as a limit tells only on which side of the number the result lay.

This assay concerns C666-1 cells. Description: C666-1 Cell Viability Assay (Resazurin cytotoxicity test). It counts as cell-based. As to conditions: Homo sapiens, C6661, EB virus-positive C666-1 cells, 72 hours treatment, 100-0.78 micromole/L, read-out: Inhibitory Rate. Summed up: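 EBV-positive nasopharyngeal carcinoma C666-1 cells, 5×10^3 per well, were grown 24 h, then exposed to compound for 72 h at 37 °C (8-point two-fold dilutions, final 100–0.78 µM). Viability was read by resazurin reduction fluorescence after 3 h; EC50 came from the fitted inhibition curve.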
On to `COC(=O)c1cccc(N2CC(Oc3ccc(COc4ccc(C)nc4)cc3)C2)c1-n1cccc1` [Example 5, methyl 3-(3-(4-((6-methylpyridin-3-yloxy)methyl)phenoxy)azetidin-1-yl)-2-(1H-pyrrol-1-yl) benzoate], for which the pEC50 was < 4.30.
Under `O=C(NO)c1cccc(N2CC(Oc3ccc(/C=C/c4cccnc4)cc3)C2)c1-n1cccc1` [Example 28b, (E)-N-hydroxy-3-(3-(4-(2-(pyridin-3-yl)vinyl)phenoxy)azetidin-1-yl)-2-(1H-pyrrol-1-yl) benzamide] stands > 6.00; under `Cn1ccc(OCc2ccc(OC3CN(c4cccc(C(=O)O)c4-n4cccc4)C3)cc2)n1` [Example 32a, 3-(3-(4-(((1-methyl-1H-pyrazol-3-yl)oxy)methyl)phenoxy)azetidin-1-yl)-2-(1H-pyrrol-1-yl) benzoic acid], < 4.30.
In the case of `COC(=O)c1cccc(N2CC(Oc3ccc(/C=C/c4cccnc4)cc3)C2)c1-c1ccccc1` [Example 36, methyl (E)-6-(3-(4-(2-(pyridin-3-yl)vinyl)phenoxy)azetidin-1-yl)-[1,1′-biphenyl]-2-carboxylate], the pEC50 is 4.30 to 5.00.
Regarding `O=C(Nc1ccc(OC2CN(c3cccc(C(=O)NO)c3-n3cccc3)C2)cc1)Nc1cccnc1` [Example 34b, N-hydroxy-3-(3-(4-(3-(pyridin-3-yl)ureido)phenoxy)azetidin-1-yl)-2-(1H-pyrrol-1-yl) benzamide], the pEC50 is > 6.00.
With `Cc1cc(COc2cccnc2)ccc1OC1CN(c2cccc(C(=O)O)c2-n2cccc2)C1` [Example 16a, 3-(3-(2-methyl-4-((pyridin-3-yloxy)methyl)phenoxy)azetidin-1-yl)-2-(1H-pyrrol-1-yl) benzoic acid] the figure was < 4.30.
Turning to `COc1cncc(OCc2ccc(OC3CN(c4cccc(C(=O)O)c4-n4cccc4)C3)cc2)c1` [Example 6a, 3-(3-(4-(((5-methoxypyridin-3-yl)oxy)methyl)phenoxy)azetidin-1-yl)-2-(1H-pyrrol-1-yl) benzoic acid], the pEC50 was < 4.30.
Under `COC(=O)c1cccc(N2CC(Oc3ccc(NC(=O)Nc4cccnc4)cc3)C2)c1-c1cccc(Cl)c1` [Example 41, methyl 3′-chloro-6-(3-(4-(3-(pyridin-3-yl)ureido)phenoxy)azetidin-1-yl)-[1,1′-biphenyl]-2-carboxylate] stands > 6.00; under `COC(=O)c1cccc(N2CC(Oc3ccc(COc4cccnc4)cc3)C2)c1-n1cccc1` [Example 1, methyl 3-(3-(4-((pyridin-3-yloxy)methyl)phenoxy)azetidin-1-yl)-2-(1H-pyrrol-1-yl) benzoate], 5.00 to 6.00.
As to `c1cncc(OCc2ccc(OC3CN(c4ccccc4-n4cccc4)C3)cc2)c1` [Example 1g, 3-((4-((1-(2-(1H-pyrrole-1-yl)phenyl)azetidin-3-yl)oxy)benzyl)oxy) pyridine], the pEC50 was 4.30 to 5.00.
Regarding `O=C(NO)c1cccc(N2CC(Oc3ccc(CNc4cccnc4)cc3)C2)c1-c1cccc(Cl)c1` [Example 38b, 3′-chloro-N-hydroxy-6-(3-(4-((pyridin-3-ylamino)methyl)phenoxy)azetidin-1-yl)-[1,1′-biphenyl]-2-carboxamide], the pEC50 was > 6.00.
With `COC(=O)c1cccc(N2CC(Oc3ccc(COc4cccnc4)c(F)c3)C2)c1-n1cccc1` [Example 20, methyl 3-(3-(3-fluoro-4-((pyridin-3-yloxy)methyl)phenoxy)azetidin-1-yl)-2-(1H-pyrrol-1-yl) benzoate] the figure was 5.00 to 6.00.
With `COC(=O)c1cccc(C#Cc2ccc(NC(=O)Nc3cccnc3)cc2)c1-c1ccc2cc[nH]c2c1` [Example 59, methyl 2-(1H-indol-6-yl)-3-((4-(3-(pyridin-3-yl)ureido)phenyl)ethynyl) benzoate] the figure was > 6.00; with `O=C(Cc1cccnc1)Nc1ccc(OC2CN(c3cccc(C(=O)O)c3)C2)cc1` [Example 49a, 3-(3-(4-(2-(pyridin-3-yl)acetamido)phenoxy)azetidin-1-yl) benzoic acid], 4.30 to 5.00; with `COC(=O)c1cccc(N2CC(Oc3ccc(NC(=O)Cc4cccnc4)cc3)C2)c1-c1ccccc1` [Example 45, methyl 6-(3-(4-(2-(pyridin-3-yl)acetamido)phenoxy)azetidin-1-yl)-[1,1′-biphenyl]-2-carboxylate], > 6.00.
As for `O=C(O)c1cccc(N2CC(Oc3ccc(CNc4cccnc4)cc3)C2)c1-n1cccc1` [Example 23a, 3-(3-(4-((pyridin-3-ylamino)methyl)phenoxy)azetidin-1-yl)-2-(1H-pyrrol-1-yl) benzoic acid], the pEC50 was 4.30 to 5.00.
For `O=C(O)c1cccc(N2CC(Oc3ccc(CNc4cccnc4)cc3)C2)c1-c1cccc(Cl)c1` [Example 38a, 3′-chloro-6-(3-(4-((pyridin-3-ylamino)methyl)phenoxy)azetidin-1-yl)-[1,1′-biphenyl]-2-carboxylic acid], the pEC50 was 4.30 to 5.00.
Under `COC(=O)c1cccc(N2CC(Oc3ccc(NC(=O)Cc4cccnc4)cc3)C2)c1-n1cccc1` [Example 51, methyl 3-(3-(4-(2-(pyridin-3-yl)acetamido)phenoxy)azetidin-1-yl)-2-(1H-pyrrol-1-yl) benzoate] stands > 6.00; under `O=C(O)c1cccc(N2CC(Oc3ccc(COc4ccncc4)cc3)C2)c1-n1cccc1` [Example 8a, 3-(3-(4-((pyridin-4-yloxy)methyl)phenoxy)azetidin-1-yl)-2-(1H-pyrrol-1-yl) benzoic acid], < 4.30.
Under `O=C(NO)c1cccc(N2CC(Oc3ccc(CNc4cccnc4)cc3)C2)c1-n1cccc1` [Example 23b, N-hydroxy-3-(3-(4-((pyridin-3-ylamino)methyl)phenoxy)azetidin-1-yl)-2-(1H-pyrrol-1-yl) benzamide] stands > 6.00; under `O=C(O)c1cccc(N2CC(Oc3ccc(COc4ncccn4)cc3)C2)c1-n1cccc1` [Example 11a, 3-(3-(4-((pyrimidin-2-yloxy)methyl)phenoxy)azetidin-1-yl)-2-(1H-pyrrol-1-yl) benzoic acid], < 4.30; under `O=C(Cc1ccc(C#Cc2cccc(C(=O)O)c2-c2ccc3cc[nH]c3c2)cc1)Nc1cccnc1` [Example 61a, 2-(1H-indol-6-yl)-3-((4-(2-oxo-2-(pyridin-3-ylamino)ethyl)phenyl)ethynyl) benzoic acid], > 6.00.
With `CN(C)C(=O)c1cccc(N2CC(Oc3ccc(COc4cccnc4)cc3)C2)c1-n1cccc1` [Example 1e, N,N-dimethyl-3-(3-(4-((pyridin-3-yloxy)methyl)phenoxy)azetidin-1-yl)-2-(1H-pyrrol-1-yl) benzamide], the pEC50 is 5.00 to 6.00.
In the case of `O=C(O)c1cccc(N2CC(Oc3ccc(Oc4cccnc4)cc3)C2)c1-n1cccc1` [Example 25a, 3-(3-(4-(pyridin-3-yloxy)phenoxy)azetidin-1-yl)-2-(1H-pyrrol-1-yl) benzoic acid], the pEC50 was < 4.30.
As to `COC(=O)c1cccc(N2CC(Oc3ccc(COCc4cccnc4)cc3)C2)c1-n1cccc1` [Example 27, methyl 3-(3-(4-((pyridin-3-ylmethoxy)methyl)phenoxy)azetidin-1-yl)-2-(1H-pyrrol-1-yl) benzoate], the pEC50 is 4.30 to 5.00.
`O=C(Cc1cccnc1)Nc1ccc(OC2CN(c3cccc(C(=O)NO)c3-c3ccccc3)C2)cc1` [Example 45b, N-hydroxy-6-(3-(4-(2-(pyridine-3-yl)acetamido)phenoxy)azetidin-1-yl)-[1,1′-biphenyl]-2-carboxamide]: the pEC50 is > 6.00.

The record behind these values is patent US20240308987A1, “SMALL MOLECULE INHIBITOR AGAINST NASOPHARYNGEAL CARCINOMA, PREPARATION METHOD AND APPLICATION THEREOF” (SHENZHEN BAY LABORATORY, priority 2021, published 2024).
